The values that follow come from patent publication US20210122730A1, “GLUCOCORTICOID RECEPTOR MODULATORS” (ORIC Pharmaceuticals, Inc., priority 2017, published 2021).

SMILES strings stand for the structures. A value given as a limit tells only on which side of the number the result lay.

In the experiment the target is T1, GR (Homo sapiens, UniProt P04150).
T1 construct: expressed in transfected cells; host or cells: CHO-K1
T1 sequence (P04150 1-777): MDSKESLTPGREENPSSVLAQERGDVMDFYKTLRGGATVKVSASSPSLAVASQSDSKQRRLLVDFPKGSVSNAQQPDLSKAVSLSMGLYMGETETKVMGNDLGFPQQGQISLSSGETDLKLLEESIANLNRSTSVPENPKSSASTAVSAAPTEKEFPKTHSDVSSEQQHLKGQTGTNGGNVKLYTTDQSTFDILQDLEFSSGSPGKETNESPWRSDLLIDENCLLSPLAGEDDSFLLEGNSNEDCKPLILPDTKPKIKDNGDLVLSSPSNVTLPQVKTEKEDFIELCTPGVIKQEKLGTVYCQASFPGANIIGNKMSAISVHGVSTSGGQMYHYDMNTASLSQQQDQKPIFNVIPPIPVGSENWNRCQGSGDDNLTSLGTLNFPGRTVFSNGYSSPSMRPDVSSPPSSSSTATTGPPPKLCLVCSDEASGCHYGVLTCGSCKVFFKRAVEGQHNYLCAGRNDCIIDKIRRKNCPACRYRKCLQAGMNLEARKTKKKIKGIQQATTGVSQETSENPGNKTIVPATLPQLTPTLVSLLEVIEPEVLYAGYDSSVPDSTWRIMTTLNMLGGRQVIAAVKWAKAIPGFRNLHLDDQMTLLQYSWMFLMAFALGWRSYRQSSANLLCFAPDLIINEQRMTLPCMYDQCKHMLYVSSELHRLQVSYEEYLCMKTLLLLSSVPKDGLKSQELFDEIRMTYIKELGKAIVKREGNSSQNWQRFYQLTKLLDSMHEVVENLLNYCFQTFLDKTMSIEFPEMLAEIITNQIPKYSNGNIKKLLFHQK
Description: In Vitro GR Luciferase Reporter Assay (antagonist mode, CHO-K1-GR-MMTV-Luc reporter cells). In kind it is cell-based. The following applies: antagonist mode, 10 nM Dexamethasone. In short, it runs like this:
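Antagonist mode: compounds (8 serial 1:5 dilutions) added to GR-MMTV-luciferase CHO-K1 reporter cells co-exposed to 10 nM dexamethasone final, in phenol red-free DMEM plus 10% CSS. After roughly 18-24 h at 37° C, OneGlo luminescence read and IC50 calculated.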
A general note: In a reporter assay the amount or activity of a reporter protein is the signal.
By IC50 is commonly meant the concentration needed to halve the response being measured. As for `CC(C)N([C@H]1CCC2=Cc3c(cnn3-c3ccc(F)cc3)C[C@]2(C(=O)c2cc(Cl)ccn2)C1)S(=O)(=O)c1ccc(Cl)nc1` [Example 323, 6-chloro-N-((4aS,6S)-4a-(4-chloropicolinoyl)-1-(4-fluorophenyl)-4,4a,5,6,7,8-hexahydro-1H-benzo[f]indazol-6-yl)-N-isopropylpyridine-3-sulfonamide], the IC50 was not above 100 nM. Regarding `Cc1nc(S(=O)(=O)N(C2CC2)[C@H]2CCC3=Cc4c(cnn4-c4ccc(F)cc4)C[C@]3(C(=O)c3ncc(C(F)(F)F)s3)C2)cn1C` [Example 336, N-cyclopropyl-N-((4aS,6S)-1-(4-fluorophenyl)-4a-(5-(trifluoromethyl)thiazole-2-carbonyl)-4,4a,5,6,7,8-hexahydro-1H-benzo[f]indazol-6-yl)-1,2-dimethyl-1H-imidazole-4-sulfonamide], the IC50 was not above 100 nM. With `Cn1cc(S(=O)(=O)CC2CCC3=Cc4c(cnn4-c4ccc(F)cc4)C[C@]3(C(=O)c3ccc(C(F)(F)F)cn3)C2)cn1` (stereo partly drawn) [Example 340, ((4aR)-1-(4-fluorophenyl)-6-(((1-methyl-1H-pyrazol-4-yl)sulfonyl)methyl)-1,4,5,6,7,8-hexahydro-4aH-benzo[f]indazol-4a-yl)(5-(trifluoromethyl)pyridin-2-yl)methanone] the figure was not above 100 nM; with `C[C@]1(O)C[C@@H](N([C@H]2CCC3=Cc4c(cnn4-c4ccc(F)cc4)C[C@]3(C(=O)c3cc(F)ccn3)C2)S(=O)(=O)c2ccc(F)cc2)C1` [Example 343, 4-fluoro-N-((4aS,6S)-1-(4-fluorophenyl)-4a-(4-fluoropicolinoyl)-4,4a,5,6,7,8-hexahydro-1H-benzo[f]indazol-6-yl)-N-((1s,3R)-3-hydroxy-3-methylcyclobutyl)benzenesulfon-amide], not above 100 nM; with `Cn1ccc(S(=O)(=O)N(CC(F)F)[C@H]2CCC3=Cc4c(cnn4-c4ccc(F)cc4)C[C@]3(C(=O)c3cc(Cl)ccn3)C2)n1` [Example 345, N-((4aS,6S)-4a-(4-chloropicolinoyl)-1-(4-fluorophenyl)-4,4a,5,6,7,8-hexahydro-1H-benzo[f]indazol-6-yl)-N-(2,2-difluoroethyl)-1-methyl-1H-pyrazole-3-sulfonamide], not above 100 nM.

`O=C(c1cc(F)ccn1)[C@]12Cc3cnn(-c4ccc(F)cc4)c3C=C1CC[C@H](N(CC(F)F)S(=O)(=O)c1ccc(Cl)nc1)C2` [Example 351, 6-chloro-N-(2,2-difluoroethyl)-N-((4aS,6S)-1-(4-fluorophenyl)-4a-(4-fluoropicolinoyl)-4,4a,5,6,7,8-hexahydro-1H-benzo[f]indazol-6-yl)pyridine-3-sulfonamide] gave an IC50 not above 100 nM.

`O=C(c1cc(Cl)ccn1)[C@]12Cc3cnn(-c4ccc(F)cc4)c3C=C1CC[C@H](N(CC(F)F)S(=O)(=O)c1ccc(Cl)nc1)C2` [Example 352, 6-chloro-N-((4aS,6S)-4a-(4-chloropicolinoyl)-1-(4-fluorophenyl)-4,4a,5,6,7,8-hexahydro-1H-benzo[f]indazol-6-yl)-N-(2,2-difluoroethyl)pyridine-3-sulfonamide] displayed an IC50 not above 100 nM. The figure for `Cn1ccc(S(=O)(=O)CC2CCC3=Cc4c(cnn4-c4ccc(F)cc4)C[C@]3(C(=O)c3cc(C(F)(F)F)ccn3)C2)n1` (stereo partly drawn) [Example 353, ((4aR)-1-(4-fluorophenyl)-6-(((1-methyl-1H-pyrazol-3-yl)sulfonyl)methyl)-1,4,5,6,7,8-hexahydro-4aH-benzo[f]indazol-4a-yl)(4-(trifluoromethyl)pyridin-2-yl)methanone] is not above 100 nM; for `Cn1ccc(S(=O)(=O)CC2CCC3=Cc4c(cnn4-c4ccc(F)cc4)C[C@]3(C(=O)c3ccc(C(F)(F)F)cn3)C2)n1` (stereo partly drawn) [Example 360, ((4aR)-1-(4-fluorophenyl)-6-(((1-methyl-1H-pyrazol-3-yl)sulfonyl)methyl)-1,4,5,6,7,8-hexahydro-4aH-benzo[f]indazol-4a-yl)(5-(trifluoromethyl)pyridin-2-yl)methanone] it is not above 100 nM.
